Laboratory results as given in patent publication US20220334127A1, “IN VITRO METHOD FOR OBTAINING CLINICAL DATA IN PATIENTS SUFFERING FROM AN INFLAMMATORY DISEASE” (FUNDACIÓN PARA LA FORMACIÓN E INVESTIGACIÓN SANITARIAS DE …, priority 2019, published 2022).

What was measured:
P2X7 receptor [1] = assay: Electron microscopy of mitochondria after ATP; type: cell-based
monocytes = assay: Mitochondrial ROS production (MitoSOX) in human monocytes; type: cell-based; settings: healthy donor monocytes, ATP 3 mM 30 min (FIG. 5f)
P2X7 receptor [2] = assay: Mitochondrial membrane depolarization (JC-10) after P2X7 receptor stimulation with ATP in monocytes and macrophages; type: cell-based, mouse; settings: ATP 3 mM
Description: FIG. 5. P2X7 receptor induces mitochondrial membrane depolarization. (a) Mitochondrial membrane potential from blood monocytes stained with JC-10 in a control healthy donor (left), in a septic patient at day 1 (middle), and from healthy controls, abdominal surgery and septic patients at day 1 or 120 (right); PE^− cells represent the monocytes with mitochondrial depolarization. (b) Correlation between the percentage of monocytes with mitochondrial membrane depolarization and the quantification of P2X7 receptor MFI in monocytes from the septic patients; IC: immunocompromised septic patients. (c) Kinetics of mitochondrial depolarization after ATP (3 mM) stimulation of LPS-primed BMDMs incubated or not with the P2X7 receptor antagonist A438079 (10 μM). (d) Percentage of human monocytes from healthy donors with mitochondrial membrane depolarization after ATP (3 mM, 30 min) stimulation and incubated or not with the P2X7 receptor antagonist AZ11645373 (10 μM). […]
Mitochondrial membrane potential was measured using the JC-10 dye (Abcam) in BMDMs with a Sinergy Mx plate reader (BioTek) or by flow cytometry using the BD FACS Celesta flow cytometer (BD Biosciences), or in human monocytes (CD14^+ labelled with anti-CD14 APC-H7, clone MφP9, BD Biosciences) using FACS Canto (BD Biosciences), following the indications of manufacturer.

SMILES: Nc1ncnc2c1ncn2[C@@H]1O[C@H](COP(=O)(O)OP(=O)(O)OP(=O)(O)O)[C@@H](O)[C@H]1O [ATP, adenosine triphosphate]
- damage to the mitochondria (electron microscopy) (P2X7 receptor [1]): no damage to the mitochondria
- mitochondrial swelling (electron microscopy) (P2X7 receptor [1]): a swelling of the mitochondria
- mitochondrial ROS production (monocytes): an increase in mitochondrial ROS production
- mitochondrial membrane depolarization by the agent itself (P2X7 receptor [2]): induced
